Source: US20240368168A1, “SARM1 ENZYME ACTIVITY INHIBITOR AND APPLICATION THEREOF” (ARTIVILA BIOPHARMA, priority 2021, published 2024)
Counter-ions that a name gives are not always drawn.

Key:
dN-SARM1 protein = target: T1, dN-SARM1 protein (Homo sapiens, UniProt Q6SZW1); experiment: In vitro biochemical assay for inhibiting SARM1 enzymatic activity (IC50), PC6 fluorescence method; settings: 50 μM NAD, 50 μM PC6, 50 μM NMN activator
T1 construct: the N-terminal mitochondrial localization signal peptide of SARM1 was removed
T1 sequence (Q6SZW1 28-724): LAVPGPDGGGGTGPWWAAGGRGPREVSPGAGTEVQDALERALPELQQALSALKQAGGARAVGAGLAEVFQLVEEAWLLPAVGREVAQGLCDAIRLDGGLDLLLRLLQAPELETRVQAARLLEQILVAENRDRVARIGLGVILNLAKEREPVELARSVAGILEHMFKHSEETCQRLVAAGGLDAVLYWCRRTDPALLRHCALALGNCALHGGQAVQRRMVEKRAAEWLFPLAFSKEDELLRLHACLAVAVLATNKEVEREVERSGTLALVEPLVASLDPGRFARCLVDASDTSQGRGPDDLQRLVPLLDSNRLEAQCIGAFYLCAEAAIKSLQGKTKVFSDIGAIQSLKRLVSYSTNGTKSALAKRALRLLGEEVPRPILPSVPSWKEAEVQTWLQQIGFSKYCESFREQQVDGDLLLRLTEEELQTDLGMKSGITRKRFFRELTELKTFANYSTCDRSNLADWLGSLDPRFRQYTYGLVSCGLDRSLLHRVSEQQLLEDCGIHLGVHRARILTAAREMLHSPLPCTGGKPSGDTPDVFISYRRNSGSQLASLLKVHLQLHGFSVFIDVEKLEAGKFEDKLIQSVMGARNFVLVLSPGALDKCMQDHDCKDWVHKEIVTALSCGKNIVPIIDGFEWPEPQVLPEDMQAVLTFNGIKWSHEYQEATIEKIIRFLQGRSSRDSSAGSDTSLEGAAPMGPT
Procedure, shortened: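 dN-SARM1 (0.05 μg/ml, 50 mM Tris-HCl pH 7.5) preincubated 10 min at room temperature with compound in serial dilution from 200 μM. Reaction started with final 50 μM NAD, 50 μM PC6 substrate and 50 μM NMN activator, 30 min at room temperature. PC6 fluorescence (ex 390/em 520 nm) rate gives activity; IC50 derived.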

[1] = target: T2, SARM1 protein in iSARM1 (HEK293) cells (Homo sapiens, UniProt Q6SZW1); experiment: Inhibitory activity in inducible SARM1 overexpressing cell line, intracellular cADPR level; format: cell-based; settings: activator CZ-48 100 μM, cADPR content
T2 construct: The full-length SARM1 was synthesized into the pUC57 plasmid by WZ Biosciences Inc., and PCR was performed using pUC57-SARM1 as a DNA template
T2 sequence (Q6SZW1 28-724): T1 sequence (Q6SZW1 28-724)
Method: In this example, the gene sequence of SARM1 was amplified using PCR, and constructed into pInducer20-neo plasmid. pInducer20-SARM1 virus was packaged in a liposome and infected HEK293 to obtain an inducible SARM1-overexpressing cell line, which was labeled as iSARM1 (HEK293). The specific preparation was as follows:
First, a 96-well culture plate was treated with 0.05 mg/ml polylysine for 5 minutes and washed once with PBS. 3×10^4 iSARM1 (HEK293) cells were plated into the 96-well plate and cultured overnight in a 37° C. and 5% incubator. The next day, the cells were added with an inhibitor with a final concentration of 50 μM, incubated in the incubator for 1.5 hours, added with activator CZ-48 with a final concentration of 100 μM, and incubated for 16 hours. Meanwhile, the cells without adding CZ-48 or without adding drug were set as control group. Finally, the intracellular cADPR level was detected to represent the activity of SARM1, and the inhibition rate of SARM1 in cells by 50 μM inhibitor was calculated.
The cADPR measurement was performed as follows. First, the cells were washed once with PBS, and added with 150 μl of pre-cooled 0.6M perchloric acid (PCA) to quickly lyse the cells and precipitate the protein. The PCA supernatant was transferred to a 1.5 ml centrifuge tube. The protein in the culture medium was dissolved again with 100 μl of 1M NaOH. The supernatant was added with 0.5 ml of organic reagent mixture (trioctylamine:chloroform=1:3) to extract PCA from water. After sufficient shaking, the mixture was centrifuged at 12,000 rpm for 10 minutes. The solution was divided into 3 layers: the upper aqueous phase, containing the small molecules of interest; the lower organic phase, in which PCA was dissolved; and a thin protein layer between the upper and lower layers. The upper layer was transferred to a new centrifuge tube, added with 1M Tris-Mg at a ratio of 1:100 (1M Tris (pH 8.0): 1M MgCl2=9:1), added with NADase at a ratio of 1:250, and treated at 37° C. overnight to remove NAD^+ from the mixed solution. After the treatment was completed, the mixed solution was filtered using Millipore's 10 K 96-well filter plate to remove NADase.
The cADPR content in the solution was determined through Cycling analysis method. The specific steps were as follows: 20 μl of the sample to be tested or the cADPR standard was taken and added to a 96-well opaque white plate. Preparation of reaction solution: 9.6 ml of PBS (pH 7.4), 200 μl of ethanol, 150 μl of 1 mg/ml AD, 10 μl of 10 mM FMN, 5 μl of 18 mg/ml Diaphorase, 10 μl of 10 mM Resazurin, and 100 μl of 1M Nam. Half of the reaction solution was divided and added with 0.2 μg/ml cyclase. The reaction solution without adding cyclase was used as control experiment. Each sample was divided into two groups, 3 replicates in each group. The reaction solutions containing or not containing cyclase were added to each group to perform the reaction. The reaction kinetic curve within 30 minutes was recorded (Ex:Em=544/599). The average slope of the reaction was calculated. Conversion was performed according to cADPR standard to obtain the accurate cADPR content. A curve of intracellular cADPR content vs corresponding inhibitor concentration was plotted. The half inhibitory concentration of the inhibitor was calculated.

| Structure (SMILES) | IC50 (dN-SARM1 protein) | EC50 [1] |
| --- | --- | --- |
| CNc1ccc2ncc(-c3cccc(C(=O)OC)c3)n2c1 [Compound 273] | 1000 to 10000 nM | 1000 to 10000 nM |
| CN(C(=O)OC(C)(C)C)c1ccc2ncc(-c3ccncc3)n2c1 [Compound 17] | 1000 to 10000 nM | 1000 to 10000 nM |
| CN(C(=O)OC(C)(C)C)c1ccc2ncc(-c3cccc(NC(=O)C4CCCO4)c3)n2c1 (stereo not drawn) [Compound 245] | 1000 to 10000 nM | < 1000 nM |
| CNc1ccc2ncc(-c3nccc4[nH]ccc34)n2c1 [Compound 183] | 1000 to 10000 nM | 1000 to 10000 nM |
| O=C(Nc1cccc(-c2cnc3ccc(N4CCOCC4)cn23)c1)[C@H]1C[C@@H](N2CCOCC2)C1 [Compound 230] | 1000 to 10000 nM | 1000 to 10000 nM |
| O=C(Cc1ccc(Cl)cc1)Nc1cccn2c(-c3ccncc3)cnc12 [Compound 234] | 1000 to 10000 nM | 1000 to 10000 nM |
| CNc1ccc2ncc(-c3cccc(OC)c3)n2c1 [Compound 70] | 1000 to 10000 nM | 1000 to 10000 nM |
| CN(C(=O)OC(C)(C)C)c1ccc2ncc(-c3cccc(NC(=O)COCc4ccccc4)c3)n2c1 [Compound 248] | 1000 to 10000 nM | < 1000 nM |
| CN(C(=O)OC(C)(C)C)c1ccc2ncc(-c3ccc(NC(=O)c4ccccc4)s3)n2c1 [Compound 181] | 1000 to 10000 nM | 1000 to 10000 nM |
| C=CCN(C(=O)OC(C)(C)C)c1ccc2ncc(-c3cccc(NC(=O)C4CCOCC4)c3)n2c1 [Compound 213, tert-butyl allyl(3-(3-(tetrahydro-2H-pyran-4-carboxamido)phenyl)imidazo[1,2-a]pyridin-6-yl)carbamate] | 1000 to 10000 nM | < 1000 nM |
| CC(C)OCCOCC(=O)Nc1cccc(-c2cnc3ccc(N(C)C(=O)OC(C)(C)C)cn23)c1 [Compound 247] | 1000 to 10000 nM | < 1000 nM |
| CN(C(=O)OC(C)(C)C)c1ccc2ncc(-c3ccncc3F)n2c1 [Compound 278] | 1000 to 10000 nM | 1000 to 10000 nM |
| CN(C(=O)OC(C)(C)C)c1ccc2ncc(-c3ccccc3Cl)n2c1 [Compound 11] | 1000 to 10000 nM | < 1000 nM |
| CNc1ccc2ncc(-c3cccc(OCCOCc4ccccc4)c3)n2c1 [Compound 157] | 1000 to 10000 nM | 1000 to 10000 nM |

The remaining lines, values ahead:

| IC50 (dN-SARM1 protein) | EC50 [1] | Structure (SMILES) |
| --- | --- | --- |
| 1000 to 10000 nM | < 1000 nM | C=CCN(C(=O)OC(C)(C)C)c1ccc2ncc(-c3cccc(N)c3)n2c1 [Compound 211, tert-butyl allyl(3-(3-aminophenyl)imidazo[1,2-a]pyridin-6-yl)carbamate] |
| 1000 to 10000 nM | 1000 to 10000 nM | CNc1ccc2ncc(-c3cccs3)n2c1 [Compound 69] |
| 1000 to 10000 nM | 1000 to 10000 nM | CNc1ccc2ncc(-c3cccc(CN)c3)n2c1 [Compound 274] |
| < 1000 nM | 1000 to 10000 nM | CN(C(=O)OC(C)(C)C)c1ccc2ncc(-c3cccc4c3CC(=O)N4)n2c1 [Compound 260] |
| < 1000 nM | < 1000 nM | CN(C(=O)OC(C)(C)C)c1ccc2ncc(-c3cccc(NC(=O)[C@H]4CCOC4)c3)n2c1 [Compound 239] |
| 1000 to 10000 nM | 1000 to 10000 nM | O=C(Nc1cccc(-c2cnc3ccc(N4CCOCC4)cn23)c1)[C@H]1C[C@H](N2CCOCC2)C1 [Compound 231] |
| 1000 to 10000 nM | 1000 to 10000 nM | NS(=O)(=O)c1cccc(-c2cnc3ccccn23)c1 [Compound 9] |
| < 1000 nM | < 1000 nM | CN(C(=O)OC(C)(C)C)c1ccc2ncc(-c3cccc(NC(=O)COCCOCCOCC(=O)Nc4cccc(-c5cnc6ccc(N(C)C(=O)OC(C)(C)C)cn56)c4)c3)n2c1 [Compound 121, ((((2,2′-((oxybis(ethane-2,1-diyl))bis(oxy))bis(acetyl))bis(azadiyl))bis(3,1-phylene))bis(imidazo[1,2-a]pyridin-3,6-diyl))bis(tert-butyl (methyl)carbamate)] |
| < 1000 nM | 1000 to 10000 nM | CC(=O)Nc1cccc(-c2cnc3ccc(N(C)C(=O)OC(C)(C)C)cn23)c1 [Compound 96, tert-butyl (3-(3-acetylaminophenyl)imidazo[1,2-a]pyridin-6-yl)(methyl)carbamate] |
| < 1000 nM | 1000 to 10000 nM | CN(C(=O)OC(C)(C)C)c1ccc2ncc(-c3cccc4c3CNC4=O)n2c1 [Compound 256] |
| < 1000 nM | 1000 to 10000 nM | CN(C(=O)C1CC1)c1ccc2ncc(-c3cccc(NC(=O)C4CCOCC4)c3)n2c1 [Compound 307] |
| < 1000 nM | 1000 to 10000 nM | CNc1ccc2ncc(-c3cccc(NC(=O)COCCOCC(=O)N[C@H](C(=O)N4C[C@H](O)C[C@H]4C(=O)NCc4ccc(-c5scnc5C)cc4)C(C)(C)C)c3)n2c1 [Compound 114, (2S,4R)-1-((S)-3,3-dimethyl-2-(2-(2-(2-((3-(6-(methylamino)imidazo[1,2-a]pyridin-3-yl)phenyl)amino)-2-oxoethoxy)ethoxy)acetamido)butyryl)-4-hydroxy-N-(4-(4-methylthiazol-5-yl)benzyl)pyrrolidin-2-carboxamide hydrochloride] |
| < 1000 nM | 1000 to 10000 nM | CNc1ccc2ncc(-c3cccc(N(C)C(=O)C4CCOCC4)c3)n2c1 [Compound 159] |
| < 1000 nM | < 1000 nM | CN(C(=O)OC(C)(C)C)c1ccc2ncc(-c3cccc(NC(=O)COC4CCOC4)c3)n2c1 (stereo not drawn) [Compound 237] |
| < 1000 nM | 1000 to 10000 nM | CN(C(=O)OC(C)(C)C)c1ccc2ncc(-c3cc4cc[nH]c4cn3)n2c1 [Compound 161, tert-butyl (3-(1H-pyrrolo[2,3-c]pyridin-5-yl)imidazo[1,2-a]pyridin-6-yl)(methyl)carbamate] |
| < 1000 nM | 1000 to 10000 nM | CNc1ccc2ncc(-c3ccccc3)n2c1 [Compound 65, N-methyl-3-phenylimidazo[1,2-a]pyridin-6-amine] |
| < 1000 nM | < 1000 nM | CNc1ccc2ncc(-c3cccc(NC(=O)COCCOCc4ccccc4)c3)n2c1 [Compound 241] |
| < 1000 nM | 1000 to 10000 nM | CN(C(=O)OC(C)(C)C)c1ccc2ncc(-c3cccc(CNC(=O)OC(C)(C)C)c3)n2c1 [Compound 254] |
| < 1000 nM | < 1000 nM | COCCOCC(=O)Nc1cccc(-c2cnc3ccc(N(C)C(=O)OC(C)(C)C)cn23)c1 [Compound 47, tert-butyl (3-(3-(2-(2-methoxyethoxy)acetamido)phenyl)imidazo[1,2-a]pyridin-6-yl)(methyl) carbamate] |
